According to patent US9220721B2, “Methods for heart regeneration” (The Salk Institute for Biological Studies, priority 2012, dated 2015):

System: cmlc2:GFP transgenic fish embryos
Experiment: Morpholino and microRNA injections in zebrafish embryos
Assay type: in vivo
Details: injection at one-cell stage
Method: Morpholino and microRNA Injections in Zebrafish Embryos. Morpholinos (Gene Tools) were dissolved in water at a 2 mM stock concentration and diluted to a 2 ng/nl working concentration in PBS/phenol red solution. Embryo injections were performed by injecting ˜1 nl morpholino solution at the 1-cell stage using a FemtoJet (Eppendorf). For microRNA mimic injection, a miR-99/100 equimolar mixture at 2 ng/nl in PBS was employed. Morphants were evaluated at 24, 48 and 72 h in a StereoLumar stereoscope (Zeiss).

Substance	ventricle size
Smarca5 morpholino: translation-blocking morpholino 5′-CTTCTTCCCGCTGCTGCTCCATGCT-3′ (SEQ ID NO: 1129) (all phosphorodiamidate morpholino (PMO))	significantly reduced ventricle size
Fntb morpholino: translation-blocking morpholino 5′-GCGCCTCTTCCATGATGAGCTCTCA-3′ (SEQ ID NO: 1128) (all phosphorodiamidate morpholino (PMO))	significantly reduced ventricle size
